A short description of experiment [1]: DRUGMATRIX: Glutamate, NMDA, Phencyclidine radioligand binding (ligand: [3H] TCP). Type of experiment: cell membranes, Rattus norvegicus, Wistar, Cerebral cortex, Membrane. The following applies: Not Active = under 50% inhibition at 10 µM.
Experiment [2] in a line: DRUGMATRIX: GABAA, Muscimol, Central radioligand binding (ligand: [3H] Muscimol). Type of experiment: cell membranes, Rattus norvegicus, Wistar, Brain, Membrane. Particulars: Not Active = under 50% inhibition at 10 µM.
Experiment [3] concerns the target Delta-type opioid receptor (Homo sapiens, UniProt P41143). The class given is cell membranes, Membrane. Particulars: hek293. Also: in other assays of this panel Not Active means under 50% inhibition at 10 µM.
The target of another experiment is D(1A) dopamine receptor (Homo sapiens, UniProt P21728). The experiment is described as follows: DRUGMATRIX: Dopamine D1 radioligand binding (ligand: [3H] SCH-23390). The class given is cell membranes, CHO, Membrane. Particulars: cho; Not Active = under 50% inhibition at 10 µM.
Sequence of D(1A) dopamine receptor (P21728 whole entry): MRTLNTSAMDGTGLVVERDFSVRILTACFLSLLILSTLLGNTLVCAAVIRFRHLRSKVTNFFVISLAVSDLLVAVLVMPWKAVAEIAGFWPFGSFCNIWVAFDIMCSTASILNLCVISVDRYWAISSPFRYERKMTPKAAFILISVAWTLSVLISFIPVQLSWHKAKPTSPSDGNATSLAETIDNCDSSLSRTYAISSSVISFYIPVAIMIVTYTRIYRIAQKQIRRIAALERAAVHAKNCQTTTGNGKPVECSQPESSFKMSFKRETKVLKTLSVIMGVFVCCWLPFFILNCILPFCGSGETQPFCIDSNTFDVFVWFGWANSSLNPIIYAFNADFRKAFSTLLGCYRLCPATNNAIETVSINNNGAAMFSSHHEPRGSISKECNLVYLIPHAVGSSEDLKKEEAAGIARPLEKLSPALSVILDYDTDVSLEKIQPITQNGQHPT
Experiment [4] deals with Platelet-activating factor receptor (Homo sapiens, UniProt P25105). The class given is tissue-based.
Sequence of Platelet-activating factor receptor (P25105 whole entry): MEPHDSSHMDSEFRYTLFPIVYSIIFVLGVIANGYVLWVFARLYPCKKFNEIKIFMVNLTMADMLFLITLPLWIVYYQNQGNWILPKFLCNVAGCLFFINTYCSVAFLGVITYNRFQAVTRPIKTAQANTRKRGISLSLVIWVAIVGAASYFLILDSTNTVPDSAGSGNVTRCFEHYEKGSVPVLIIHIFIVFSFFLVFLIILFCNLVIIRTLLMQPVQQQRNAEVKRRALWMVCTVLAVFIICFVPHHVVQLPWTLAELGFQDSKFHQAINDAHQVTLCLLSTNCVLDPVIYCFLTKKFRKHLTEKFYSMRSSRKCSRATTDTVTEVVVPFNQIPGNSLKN
In experiment [5] the target is Tyrosine-protein kinase Lck (Homo sapiens, UniProt P06239). The experiment is described as follows: DRUGMATRIX: Protein Tyrosine Kinase, LCK enzyme inhibition (substrate: Poly(Glu:Tyr)). The class given is cell-based, Insect cells. The following applies: Not Active = under 50% inhibition at 10 µM.
Sequence of Tyrosine-protein kinase Lck (P06239 whole entry): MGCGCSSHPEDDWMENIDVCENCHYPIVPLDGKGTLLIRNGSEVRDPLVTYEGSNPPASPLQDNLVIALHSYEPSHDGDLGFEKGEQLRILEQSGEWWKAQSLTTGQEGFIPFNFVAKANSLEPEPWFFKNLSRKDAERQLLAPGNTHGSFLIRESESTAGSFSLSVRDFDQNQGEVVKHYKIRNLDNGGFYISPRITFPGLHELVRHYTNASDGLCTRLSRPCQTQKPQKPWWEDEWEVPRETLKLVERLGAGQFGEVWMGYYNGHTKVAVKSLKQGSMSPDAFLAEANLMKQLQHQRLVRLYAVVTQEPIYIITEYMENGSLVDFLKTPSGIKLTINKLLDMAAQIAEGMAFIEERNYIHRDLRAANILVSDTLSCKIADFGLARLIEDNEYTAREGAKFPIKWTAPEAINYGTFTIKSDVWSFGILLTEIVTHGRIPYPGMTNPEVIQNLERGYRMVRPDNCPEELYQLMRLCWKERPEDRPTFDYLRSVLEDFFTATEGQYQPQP
Experiment [6] has as its target T1, Cysteinyl leukotriene receptor 1 (Homo sapiens, UniProt Q9Y271). Also: in other assays of this panel Not Active means under 50% inhibition at 10 µM.
T1 sequence (Q9Y271 whole entry): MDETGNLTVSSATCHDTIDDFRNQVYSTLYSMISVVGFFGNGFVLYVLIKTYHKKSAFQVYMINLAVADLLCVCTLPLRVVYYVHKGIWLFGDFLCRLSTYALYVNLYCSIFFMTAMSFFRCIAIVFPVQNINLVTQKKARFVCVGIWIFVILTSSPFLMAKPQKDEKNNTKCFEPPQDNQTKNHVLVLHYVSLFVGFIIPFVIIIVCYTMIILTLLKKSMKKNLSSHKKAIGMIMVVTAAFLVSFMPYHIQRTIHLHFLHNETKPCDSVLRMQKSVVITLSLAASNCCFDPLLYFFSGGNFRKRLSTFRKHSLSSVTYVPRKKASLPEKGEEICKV
Type of experiment: cell membranes, Membrane. Particulars: cho-k1.

Sequence of Delta-type opioid receptor (P41143 whole entry): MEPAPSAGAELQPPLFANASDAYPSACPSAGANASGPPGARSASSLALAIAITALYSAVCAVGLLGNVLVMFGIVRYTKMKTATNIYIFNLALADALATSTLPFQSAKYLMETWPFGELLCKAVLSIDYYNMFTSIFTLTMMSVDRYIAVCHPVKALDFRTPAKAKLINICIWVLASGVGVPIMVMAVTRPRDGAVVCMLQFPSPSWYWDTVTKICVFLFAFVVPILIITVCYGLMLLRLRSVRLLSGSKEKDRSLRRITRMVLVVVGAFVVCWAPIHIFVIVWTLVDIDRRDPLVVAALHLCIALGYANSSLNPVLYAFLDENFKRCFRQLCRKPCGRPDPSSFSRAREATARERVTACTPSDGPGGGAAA

One may read the IC50 as the concentration that gives 50% inhibition. A word on the Ki: it is the equilibrium dissociation constant of an inhibitor or competing ligand from its target. For `NC1CCN(c2nc3c(cc2F)c(=O)c(C(=O)O)cn3-c2ccc(F)cc2F)C1` (stereo not drawn) [TOSUFLOXACIN], the IC50 result (in experiment [1]; in experiment [2]; in experiment [3]; on D(1A) dopamine receptor; in experiment [4]; in experiment [5] (insect cells)) was “Not Active” each time. Moreover, in experiment [6], the concentration for half-maximal inhibition (IC50) entry was “Not Active”. For the same compound, the inhibition constant Ki result in experiment [1] and in experiment [2] was “Not Active” each time.
Regarding `N#Cc1ccc(C(c2ccc(C#N)cc2)n2cncn2)cc1` [LETROZOLE], the concentration for half-maximal inhibition (IC50) result (in experiment [1]; in experiment [2]; in experiment [3]; on D(1A) dopamine receptor; in experiment [4]; in experiment [5] (insect cells)) was “Not Active” in each case. Moreover, the 50% inhibitory concentration (IC50) result in experiment [6] is “Not Active”. The inhibition constant Ki entry in experiment [1] and in experiment [2] was “Not Active” throughout.
With `O=C(Nc1ccc(Br)cc1)c1cc(Br)cc(Br)c1O` [TRIBROMSALAN], the IC50 entry in experiment [1] was “Not Active”; in experiment [2], “Not Active”; in experiment [3], “Not Active”; at D(1A) dopamine receptor it was “Not Active”; in experiment [4], “Not Active”; in experiment [5] (read-out: IC50) it was 5.02 µM. Besides, the IC50 entry in experiment [6] is on record as “Not Active”. In addition, the inhibition constant (Ki) entry in experiment [1] and in experiment [2] was “Not Active” in each case.
Consider `O=C1Nc2ccc(Cl)cc2C(c2ccccc2Cl)=NC1O` (stereo not drawn) [LORAZEPAM], for which the IC50 entry (in experiment [1]; in experiment [2]; in experiment [3]; on D(1A) dopamine receptor; in experiment [4]; in experiment [5] (insect cells)) was “Not Active” in each case. Further, the IC50 entry in experiment [6] is “Not Active”. The Ki entry in experiment [1] and in experiment [2] was “Not Active” in each case.
Regarding `CC(C)Oc1ccc2c(=O)c(-c3ccccc3)coc2c1` [IPRIFLAVONE], the IC50 entry (in experiment [1]; in experiment [2]; in experiment [3]; at D(1A) dopamine receptor; in experiment [4]; in experiment [5] (insect cells)) was “Not Active” each time. In addition, the IC50 result in experiment [6] is reported as “Not Active”. In addition, the inhibition constant (Ki) entry in experiment [1] and in experiment [2] was “Not Active” each time.
Turning to `CNC1(c2ccccc2Cl)CCCCC1=O` (stereo not drawn) [KETAMINE], the IC50 in experiment [1] (read-out: IC50) was 1.01 µM; in experiment [2], “Not Active”; in experiment [3] it was “Not Active”; on D(1A) dopamine receptor, “Not Active”; in experiment [4], “Not Active”; in experiment [5] (insect cells) it was “Not Active”. The IC50 entry in experiment [6] is “Not Active”. Further, the Ki is 0.684 µM in experiment [1] (read-out: Ki) and “Not Active” in experiment [2].
`O=C(O)c1cn(-c2ccc(F)cc2)c2cc(N3CCNCC3)c(F)cc2c1=O` [SARAFLOXACIN]: the half-maximal inhibitory concentration (IC50) result (in experiment [1]; in experiment [2]; in experiment [3]; at D(1A) dopamine receptor; in experiment [4]; in experiment [5] (insect cells)) was “Not Active” each time. In addition, in experiment [6], the concentration for half-maximal inhibition (IC50) result is “Not Active”. Besides, the Ki result in experiment [1] and in experiment [2] was “Not Active” throughout.
On to SODIUM ORTHOVANAD, for which the IC50 entry (in experiment [1]; in experiment [2]; in experiment [3]; on D(1A) dopamine receptor; in experiment [4]; in experiment [5] (insect cells)) was “Not Active” each time. In addition, in experiment [6], the IC50 result is reported as “Not Active”. In addition, the Ki entry (in experiment [1]; in experiment [2]; in experiment [3]; at D(1A) dopamine receptor; in experiment [4]; in experiment [5] (insect cells)) was “Not Active” in each case. Further, the Ki result in experiment [6] is “Not Active”.
Take `Cn1c(=O)c2nc[nH]c2n(C)c1=O.O` [THEOPHYLLINE]: the IC50 result (in experiment [1]; in experiment [2]; in experiment [3]; at D(1A) dopamine receptor; in experiment [4]; in experiment [5] (insect cells)) was “Not Active” in each case. Besides, the IC50 entry in experiment [6] is recorded as “Not Active”. The Ki result in experiment [1] and in experiment [2] was “Not Active” in each case.
For the compound `CCN(CC)CC(=O)Nc1c(C)cccc1C` [LIDOCAINE], the 50% inhibitory concentration (IC50) result (in experiment [1]; in experiment [2]; in experiment [3]; at D(1A) dopamine receptor; in experiment [4]; in experiment [5] (insect cells)) was “Not Active” each time. In experiment [6], the half-maximal inhibitory concentration (IC50) result is “Not Active”. Moreover, the inhibitory constant (Ki) result in experiment [1] and in experiment [2] was “Not Active” throughout.
For `CN(C/C=C/C#CC(C)(C)C)Cc1cccc2ccccc12` [TERBINAFINE], the IC50 entry (in experiment [1]; in experiment [2]; in experiment [3]; at D(1A) dopamine receptor; in experiment [4]; in experiment [5] (insect cells)) was “Not Active” throughout. Also, the half-maximal inhibitory concentration (IC50) entry in experiment [6] is on record as “Not Active”. Moreover, the Ki result in experiment [1] and in experiment [2] was “Not Active” each time.
As to `CCCCNc1ccc(C(=O)OCCN(C)C)cc1` [TETRACAINE], the IC50 entry (in experiment [1]; in experiment [2]; in experiment [3]; at D(1A) dopamine receptor; in experiment [4]; in experiment [5] (insect cells)) was “Not Active” throughout. Further, the IC50 entry in experiment [6] is on record as “Not Active”. The Ki entry in experiment [1] and in experiment [2] was “Not Active” in each case.
With `CC[C@@H](C(=O)[C@@H](C)[C@@H](O)[C@H](C)[C@@H]1O[C@@H]([C@@H](CC)C(=O)O)CC[C@@H]1C)[C@H]1O[C@]2(C=C[C@@H](O)[C@]3(CC[C@@](C)([C@H]4CC[C@](O)(CC)[C@H](C)O4)O3)O2)[C@H](C)C[C@@H]1C` [SALINOMYCIN], the IC50 entry (in experiment [1]; in experiment [2]; in experiment [3]; on D(1A) dopamine receptor; in experiment [4]; in experiment [5] (insect cells)) was “Not Active” in each case. Moreover, in experiment [6], the concentration for half-maximal inhibition (IC50) entry is listed as “Not Active”. For the same compound, the Ki entry in experiment [1] and in experiment [2] was “Not Active” each time.
For the compound `Cc1c(C)c2c(c(C)c1O)CCC(C)(CN1CCN(c3cc(N4CCCC4)nc(N4CCCC4)n3)CC1)O2` (stereo not drawn), the IC50 result in experiment [1] is “Not Active”; in experiment [2], “Not Active”; in experiment [3] it was “Not Active”; at D(1A) dopamine receptor, “Not Active”; in experiment [4] it was “Not Active”; in experiment [5] (read-out: IC50), 17.1 µM. In addition, in experiment [6], the IC50 entry is on record as “Not Active”. Also, the Ki entry in experiment [1] and in experiment [2] was “Not Active” throughout.
In the case of `Clc1ccccc1CN1CCc2sccc2C1` [TICLOPIDINE], the 50% inhibitory concentration (IC50) result (in experiment [1]; in experiment [2]; in experiment [3]; at D(1A) dopamine receptor; in experiment [4]; in experiment [5] (insect cells)) was “Not Active” throughout. Moreover, the half-inhibitory concentration (IC50) result in experiment [6] is recorded as “Not Active”. In addition, the inhibition constant Ki entry in experiment [1] and in experiment [2] was “Not Active” each time.
Consider `CS(=O)(=O)c1ccc([C@@H](O)[C@@H](CO)NC(=O)C(Cl)Cl)cc1` [THIAMPHENICOL], for which the concentration for half-maximal inhibition (IC50) result (in experiment [1]; in experiment [2]; in experiment [3]; on D(1A) dopamine receptor; in experiment [4]; in experiment [5] (insect cells)) was “Not Active” throughout. In experiment [6], the IC50 result was “Not Active”. In addition, the Ki entry in experiment [1] and in experiment [2] was “Not Active” in each case.
In the case of `O=C(Oc1ccccc1C(=O)O)c1ccccc1O` [SALSALATE], the IC50 result (in experiment [1]; in experiment [2]; in experiment [3]; at D(1A) dopamine receptor; in experiment [4]; in experiment [5] (insect cells)) was “Not Active” in each case. In addition, the IC50 entry in experiment [6] is reported as “Not Active”. Also, the inhibition constant (Ki) entry in experiment [1] and in experiment [2] was “Not Active” in each case.

Values taken from ChEMBL document CHEMBL1909046, “DrugMatrix in vitro pharmacology data”.
